# In the NIST ThermoML archive (doi:10.1016/j.tca.2016.11.011):
# “And” between values parts separate entries of the source, which are not always exact repeats. Equal values may be shown once. Numbers after ± are expanded uncertainties.
# Conditions: DSC
row,Glass transition temperature,SMILES
1,44.5 ± 1 °C and 42.2 ± 1 °C,COC(=O)C1=C(C)NC(C)=C(C(=O)OC)C1c1ccccc1[N+](=O)[O-]
2,-24.7 ± 1 °C and -26.5 ± 1 °C,"O[C@@H]1[C@@H](O)[C@@H]2OC[C@@H](O2)[C@H]1O [1,6-anhydro-β-D-glucopyranose]"
3,24 ± 1 °C and 21.7 ± 1 °C,CC(=O)Nc1ccc(O)cc1 [N-acetyl-p-aminophenol]
